# Experimental data reported in ChEMBL document CHEMBL4190317, “Design, synthesis, and biological evaluation of novel 3-substituted imidazo[1,2-a]pyridine and quinazolin-4(3H)-one derivatives as PI3Kα inhibitors” (Eur J Med Chem, 2017).
# The source made the active and inactive calls. The rule behind the calls is not given here.
# Experiments:
# [1] = system: SK-HEP1; assay: Antiproliferative activity against human SKHEP1 cells after 72 hrs by SRB assay; conditions: SK-HEP1, 72 h
# [2] = system: MDA-MB-231; assay: Antiproliferative activity against human MDA-MB-231 cells after 72 hrs by SRB assay; conditions: MDA-MB-231, 72 h
# [3] = system: SNU-638; assay: Antiproliferative activity against human SNU638 cells after 72 hrs by SRB assay; conditions: SNU-638, 72 h
# [4] = system: HCT-116; assay: cells; conditions: Homo sapiens, HCT-116, 72 h
# [5] = system: A549; assay: cells; conditions: Homo sapiens, A549, 72 h
# Description: Antiproliferative activity against human A549 cells after 72 hrs by SRB assay
# [6] = species on record: Homo sapiens; assay: Inhibition of PI3K in human HCT116 cells assessed as reduction in Akt phosphorylation at Ser473 residue after 24 hrs by Western blot analysis; assay type: cell-based
# [7] = target: Phosphatidylinositol 4,5-bisphosphate 3-kinase catalytic subunit beta isoform (Homo sapiens, UniProt P42338); assay: Inhibition of PI3Kbeta (unknown origin) using PIP2 as substrate by HTRF […] assay
# Sequence of Phosphatidylinositol 4,5-bisphosphate 3-kinase catalytic subunit beta isoform (P42338 whole entry, canonical isoform): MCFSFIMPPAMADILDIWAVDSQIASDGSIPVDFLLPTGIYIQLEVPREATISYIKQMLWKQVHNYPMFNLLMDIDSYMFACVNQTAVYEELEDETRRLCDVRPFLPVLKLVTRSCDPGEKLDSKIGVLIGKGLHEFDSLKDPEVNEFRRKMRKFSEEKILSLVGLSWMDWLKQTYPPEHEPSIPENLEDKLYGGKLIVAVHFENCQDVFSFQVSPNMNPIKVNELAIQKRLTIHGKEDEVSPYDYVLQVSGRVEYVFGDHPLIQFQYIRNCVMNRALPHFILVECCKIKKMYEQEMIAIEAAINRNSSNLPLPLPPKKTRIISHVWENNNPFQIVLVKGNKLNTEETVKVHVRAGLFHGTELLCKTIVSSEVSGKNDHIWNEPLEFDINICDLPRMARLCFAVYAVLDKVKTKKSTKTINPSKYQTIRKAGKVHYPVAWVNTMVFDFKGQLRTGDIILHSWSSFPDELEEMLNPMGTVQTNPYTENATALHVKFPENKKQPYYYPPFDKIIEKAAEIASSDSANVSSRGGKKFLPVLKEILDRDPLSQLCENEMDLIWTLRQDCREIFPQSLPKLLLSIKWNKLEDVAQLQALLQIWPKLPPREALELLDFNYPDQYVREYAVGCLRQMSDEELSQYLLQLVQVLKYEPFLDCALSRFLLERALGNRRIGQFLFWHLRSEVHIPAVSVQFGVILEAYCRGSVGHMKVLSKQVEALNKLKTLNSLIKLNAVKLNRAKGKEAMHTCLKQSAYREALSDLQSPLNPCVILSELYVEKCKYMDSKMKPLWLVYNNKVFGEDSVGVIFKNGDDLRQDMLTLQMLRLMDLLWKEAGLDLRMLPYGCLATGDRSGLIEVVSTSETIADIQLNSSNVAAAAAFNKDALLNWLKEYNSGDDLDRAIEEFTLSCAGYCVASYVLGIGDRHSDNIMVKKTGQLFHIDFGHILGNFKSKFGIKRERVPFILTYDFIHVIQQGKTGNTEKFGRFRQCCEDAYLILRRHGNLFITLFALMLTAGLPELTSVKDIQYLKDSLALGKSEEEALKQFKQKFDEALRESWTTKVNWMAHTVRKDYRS
# [8] = target: Phosphatidylinositol 4,5-bisphosphate 3-kinase catalytic subunit gamma isoform (Homo sapiens, UniProt P48736); assay: Inhibition of N-terminal His6-tagged recombinant full-length human PI3Kgamma expressed in baculovirus infected Sf21 insect cells using PIP2 as substrate by HTRF […] assay
# Sequence of Phosphatidylinositol 4,5-bisphosphate 3-kinase catalytic subunit gamma isoform (P48736 whole entry, canonical isoform): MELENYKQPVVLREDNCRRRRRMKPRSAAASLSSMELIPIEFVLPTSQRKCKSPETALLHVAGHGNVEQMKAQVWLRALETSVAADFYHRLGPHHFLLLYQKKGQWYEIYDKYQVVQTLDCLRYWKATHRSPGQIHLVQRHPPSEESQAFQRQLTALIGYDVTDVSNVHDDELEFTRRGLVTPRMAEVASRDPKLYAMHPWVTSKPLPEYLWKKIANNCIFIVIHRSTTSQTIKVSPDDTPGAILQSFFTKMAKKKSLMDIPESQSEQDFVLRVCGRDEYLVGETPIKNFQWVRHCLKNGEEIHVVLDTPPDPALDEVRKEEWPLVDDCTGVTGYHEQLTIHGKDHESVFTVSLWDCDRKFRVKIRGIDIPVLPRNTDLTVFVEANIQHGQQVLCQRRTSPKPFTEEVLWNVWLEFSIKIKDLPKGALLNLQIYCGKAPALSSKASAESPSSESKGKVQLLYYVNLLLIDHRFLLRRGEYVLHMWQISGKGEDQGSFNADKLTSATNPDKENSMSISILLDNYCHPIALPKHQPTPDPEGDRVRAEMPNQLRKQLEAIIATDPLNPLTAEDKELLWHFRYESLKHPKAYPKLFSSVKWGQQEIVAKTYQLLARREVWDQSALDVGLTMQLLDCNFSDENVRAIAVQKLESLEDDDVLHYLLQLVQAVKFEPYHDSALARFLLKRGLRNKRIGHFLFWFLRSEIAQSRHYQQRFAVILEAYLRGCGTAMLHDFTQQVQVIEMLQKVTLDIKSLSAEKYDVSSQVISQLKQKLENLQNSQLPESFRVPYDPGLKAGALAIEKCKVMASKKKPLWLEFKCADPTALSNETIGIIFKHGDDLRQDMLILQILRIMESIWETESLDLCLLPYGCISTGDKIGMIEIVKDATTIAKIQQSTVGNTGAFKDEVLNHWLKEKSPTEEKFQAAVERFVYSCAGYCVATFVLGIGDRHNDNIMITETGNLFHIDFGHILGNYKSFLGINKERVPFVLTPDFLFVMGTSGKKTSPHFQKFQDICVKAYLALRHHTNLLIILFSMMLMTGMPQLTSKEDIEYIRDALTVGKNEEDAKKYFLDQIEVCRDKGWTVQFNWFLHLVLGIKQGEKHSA
# [9] = target: PI3-kinase p110-alpha/p85-alpha (Homo sapiens, UniProt P42336); assay: Inhibition of N-terminal His6-tagged recombinant full-length human p110alpha/untagged recombinant full length human p85alpha expressed in baculovirus infected Sf21 insect cells using PIP2 as substrate by HTRF […] assay
# Sequence of PI3-kinase p110-alpha/p85-alpha (P27986 whole entry): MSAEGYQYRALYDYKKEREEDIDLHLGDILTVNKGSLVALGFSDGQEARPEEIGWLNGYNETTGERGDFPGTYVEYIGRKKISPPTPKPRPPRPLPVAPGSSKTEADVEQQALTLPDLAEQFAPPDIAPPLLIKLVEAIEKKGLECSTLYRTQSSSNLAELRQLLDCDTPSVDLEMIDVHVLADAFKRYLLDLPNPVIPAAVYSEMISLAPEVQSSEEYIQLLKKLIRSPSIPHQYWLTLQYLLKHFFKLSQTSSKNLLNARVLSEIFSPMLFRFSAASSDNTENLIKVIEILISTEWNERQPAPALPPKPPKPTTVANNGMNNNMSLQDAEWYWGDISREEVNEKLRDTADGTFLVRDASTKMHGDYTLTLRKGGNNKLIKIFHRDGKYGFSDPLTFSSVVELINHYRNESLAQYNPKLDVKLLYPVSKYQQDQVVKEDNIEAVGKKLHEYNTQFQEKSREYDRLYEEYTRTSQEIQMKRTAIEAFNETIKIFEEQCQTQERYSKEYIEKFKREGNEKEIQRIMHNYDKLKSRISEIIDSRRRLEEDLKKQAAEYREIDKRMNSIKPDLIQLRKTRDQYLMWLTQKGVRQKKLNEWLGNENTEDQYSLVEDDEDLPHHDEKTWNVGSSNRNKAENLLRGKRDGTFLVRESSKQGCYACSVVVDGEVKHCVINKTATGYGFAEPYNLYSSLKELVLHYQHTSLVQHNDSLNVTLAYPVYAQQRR
# Sequence of PI3-kinase p110-alpha/p85-alpha (P42336 whole entry): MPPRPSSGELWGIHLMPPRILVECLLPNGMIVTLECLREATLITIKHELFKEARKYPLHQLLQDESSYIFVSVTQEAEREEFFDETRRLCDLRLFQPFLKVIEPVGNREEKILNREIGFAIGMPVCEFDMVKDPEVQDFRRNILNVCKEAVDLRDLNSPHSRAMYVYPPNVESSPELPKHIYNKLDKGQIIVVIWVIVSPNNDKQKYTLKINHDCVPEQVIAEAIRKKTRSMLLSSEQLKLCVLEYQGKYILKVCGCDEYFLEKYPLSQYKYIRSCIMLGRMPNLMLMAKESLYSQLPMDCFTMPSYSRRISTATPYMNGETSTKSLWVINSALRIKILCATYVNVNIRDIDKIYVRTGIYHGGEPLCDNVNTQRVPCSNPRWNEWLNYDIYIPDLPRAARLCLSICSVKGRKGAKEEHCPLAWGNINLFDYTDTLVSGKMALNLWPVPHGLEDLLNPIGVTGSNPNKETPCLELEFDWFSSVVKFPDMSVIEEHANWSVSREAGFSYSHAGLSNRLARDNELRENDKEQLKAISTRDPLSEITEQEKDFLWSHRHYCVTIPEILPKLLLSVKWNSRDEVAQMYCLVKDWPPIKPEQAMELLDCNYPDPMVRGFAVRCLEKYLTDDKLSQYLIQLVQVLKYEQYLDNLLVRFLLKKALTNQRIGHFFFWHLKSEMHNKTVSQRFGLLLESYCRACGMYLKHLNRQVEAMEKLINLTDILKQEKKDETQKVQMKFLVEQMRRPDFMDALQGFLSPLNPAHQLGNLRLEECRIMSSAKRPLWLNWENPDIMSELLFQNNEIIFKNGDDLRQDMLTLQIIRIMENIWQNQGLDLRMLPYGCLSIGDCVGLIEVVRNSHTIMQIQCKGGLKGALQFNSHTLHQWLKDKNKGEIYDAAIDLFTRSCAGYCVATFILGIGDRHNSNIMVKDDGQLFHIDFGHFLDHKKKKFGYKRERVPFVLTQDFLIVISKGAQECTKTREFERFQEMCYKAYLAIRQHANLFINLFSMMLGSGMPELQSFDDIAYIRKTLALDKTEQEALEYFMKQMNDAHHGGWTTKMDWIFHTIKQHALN
# [10] = system: HUVEC; assay: Cytotoxicity against HUVEC after 72 hrs by SRB assay; conditions: Homo sapiens
# [11] = target: PI3-kinase p110-delta/p85-alpha (Homo sapiens, UniProt O00329); assay: Inhibition of p110delta/p85alpha (unknown origin) using PIP2 as substrate by HTRF […] assay; assay type: protein-complex assay
# Sequence of PI3-kinase p110-delta/p85-alpha (P27986 whole entry): as the sequence (P27986 whole entry) above
# Sequence of PI3-kinase p110-delta/p85-alpha (O00329 whole entry): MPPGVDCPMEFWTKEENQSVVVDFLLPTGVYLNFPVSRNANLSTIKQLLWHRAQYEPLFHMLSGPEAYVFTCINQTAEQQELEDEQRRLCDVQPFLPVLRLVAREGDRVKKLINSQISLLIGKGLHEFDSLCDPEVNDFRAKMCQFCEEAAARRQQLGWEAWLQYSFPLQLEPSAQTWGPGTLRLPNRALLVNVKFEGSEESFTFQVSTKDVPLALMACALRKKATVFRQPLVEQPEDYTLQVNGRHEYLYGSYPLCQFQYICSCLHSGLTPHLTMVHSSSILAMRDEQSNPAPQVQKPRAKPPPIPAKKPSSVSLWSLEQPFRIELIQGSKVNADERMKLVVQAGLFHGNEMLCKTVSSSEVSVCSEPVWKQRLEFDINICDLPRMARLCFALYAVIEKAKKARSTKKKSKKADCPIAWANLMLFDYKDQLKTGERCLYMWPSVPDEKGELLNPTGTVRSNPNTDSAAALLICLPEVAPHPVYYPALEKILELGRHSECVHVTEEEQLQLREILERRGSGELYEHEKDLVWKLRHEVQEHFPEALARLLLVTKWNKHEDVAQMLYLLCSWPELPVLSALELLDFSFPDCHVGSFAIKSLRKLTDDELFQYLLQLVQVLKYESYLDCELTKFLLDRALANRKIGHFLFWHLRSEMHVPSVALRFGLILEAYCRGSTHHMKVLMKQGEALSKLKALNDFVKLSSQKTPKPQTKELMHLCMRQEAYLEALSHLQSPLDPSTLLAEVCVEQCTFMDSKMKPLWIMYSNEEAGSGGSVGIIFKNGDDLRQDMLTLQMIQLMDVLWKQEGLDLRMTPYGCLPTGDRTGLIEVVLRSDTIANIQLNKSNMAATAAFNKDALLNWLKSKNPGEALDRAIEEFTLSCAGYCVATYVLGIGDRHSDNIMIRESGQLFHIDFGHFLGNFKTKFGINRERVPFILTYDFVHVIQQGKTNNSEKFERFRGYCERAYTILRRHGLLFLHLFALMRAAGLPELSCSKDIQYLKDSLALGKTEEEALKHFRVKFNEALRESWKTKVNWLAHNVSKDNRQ
# [12] = species on record: Homo sapiens; assay: Inhibition of PI3K in human HCT116 cells assessed as reduction in Akt phosphorylation at Ser473 residue at 0.5 uM after 24 hrs by Western blot analysis; assay type: cell-based
IC50 [1] [nM],IC50 [2] [nM],IC50 [3] [nM],IC50 [4] [nM],IC50 [5] [nM],IC50 [7] [nM],IC50 [8] [nM],IC50 [9] [nM],IC50 [11] [nM],Compound,inhibition [6],IC50 [10] [nM],inhibition [12]
810,150,2260,1360,570,–,–,–,–,COc1ncc(-c2ccc3ncn(CCCn4ccccc4=O)c(=O)c3c2)cc1NS(=O)(=O)c1ccc(F)cc1F,–,–,–
–,–,–,–,–,89,45,–,–,COc1ncc(-c2ccc3ncc(C(=O)NCCN4CCOCC4)n3c2)cc1NS(=O)(=O)c1ccc(F)cc1F,Dose-dependent effect,–,–
2250,1830,> 20000,1110,2540,–,–,–,–,COc1ncc(-c2ccc3ncn(CCCCC(=O)N4CCOCC4)c(=O)c3c2)cc1NS(=O)(=O)c1ccc(F)cc1F,–,–,–
300,150,15900,1300,> 20000,–,–,–,–,CCOC(=O)c1cc2cc(-c3cnc(OC)c(NS(=O)(=O)c4ccc(F)cc4)c3)ccc2[nH]1,–,–,–
750,370,1460,1310,1150,–,–,–,–,COc1ncc(-c2ccc3ncc(C(=O)O)n3c2)cc1NS(=O)(=O)c1ccc(F)cc1F,–,–,–
> 20000,11700,250,800,200,–,–,–,–,COc1ncc(-c2ccc3ncn(CCCn4ccnc4)c(=O)c3c2)cc1NS(=O)(=O)c1ccc(F)cc1F,–,–,–
1400,120,300,820,100,–,–,–,–,CCOC(=O)Cn1cnc2ccc(-c3cnc(OC)c(NS(=O)(=O)c4ccc(F)cc4F)c3)cc2c1=O,–,–,–
1090,760,680,540,260,59,104,–,–,CCOC(=O)c1cnc2ccc(-c3cncc(NS(=O)(=O)c4ccccc4)c3)cn12,–,–,Active
170,190,90,320,230,–,–,–,–,CCOC(=O)c1cnc2ccc(-c3cnc(OC)c(NS(C)(=O)=O)c3)cn12,–,–,–

# The remaining lines, values behind:
Compound,IC50 [1] [nM],IC50 [2] [nM],IC50 [3] [nM],IC50 [4] [nM],IC50 [5] [nM],IC50 [7] [nM],IC50 [8] [nM],IC50 [9] [nM],IC50 [11] [nM],inhibition [6],IC50 [10] [nM],inhibition [12]
COc1ncc(-c2ccc3ncc(C(=O)NCCN(C)C)n3c2)cc1NS(=O)(=O)c1ccc(F)cc1F,> 20000,1800,510,140,400,–,–,–,–,–,–,–
COc1ncc(-c2ccc3ncc(C(=O)N4CCC(O)CC4)n3c2)cc1NS(=O)(=O)c1ccc(F)cc1F,790,630,270,490,480,–,–,–,–,–,–,–
COc1ncc(-c2ccc3ncn(CCCCCC(=O)N4CCOCC4)c(=O)c3c2)cc1NS(=O)(=O)c1ccc(F)cc1F,11500,2150,19700,2230,7600,–,–,–,–,–,–,–
COc1ncc(-c2ccc3ncn(CCCn4cccn4)c(=O)c3c2)cc1NS(=O)(=O)c1ccc(F)cc1F,> 20000,> 20000,360,4000,200,–,–,–,–,–,–,–
CCCCS(=O)(=O)Nc1cc(-c2ccc3ncc(C(=O)OCC)n3c2)cnc1OC,830,2320,510,4940,3560,–,–,–,–,–,–,–
CCOC(=O)c1cn2cc(-c3cnc(OC)c(NS(=O)(=O)c4ccc(F)cc4)c3)ccc2n1,> 20000,> 20000,> 20000,> 20000,> 20000,–,–,–,–,–,–,–
CCOC(=O)c1cnc2ccc(-c3cnc(OC)c(NS(=O)(=O)c4ccc(F)cc4)c3)cn12,> 20000,530,> 20000,640,510,–,–,–,–,–,–,–
COc1ncc(-c2ccc3ncc(C(=O)NCCCN4CCOCC4)n3c2)cc1NS(=O)(=O)c1ccc(F)cc1F,400,300,300,100,500,106,37,3.8,101,–,3560,–
CCOC(=O)c1cnc2ccc(-c3cnc(OC)c(NS(=O)(=O)c4ccc(F)cc4F)c3)cn12,300,120,360,90,300,–,–,–,–,–,–,–
COc1ncc(-c2ccc3ncc(C(=O)N4CCC(OC(=O)c5ccccc5)CC4)n3c2)cc1NS(=O)(=O)c1ccc(F)cc1F,2050,1450,1390,1230,1620,–,–,–,–,–,–,–
COc1ncc(-c2ccc3ncn(CCCN4CCOCC4)c(=O)c3c2)cc1NS(=O)(=O)c1ccc(F)cc1F,600,500,280,200,100,108,116,6.5,69,–,8970,–
COc1ncc(-c2ccc3ncc(C(=O)NCc4ccncc4)n3c2)cc1NS(=O)(=O)c1ccc(F)cc1F,980,420,490,310,500,–,–,–,–,–,–,–
